Assay results as given in patent US9440952B2, “Compounds inhibiting leucine-rich repeat kinase enzyme activity” (Merck Sharp & Dohme Corp., priority 2013, dated 2016).

Molecular target: T1, LRRK2(G2019S mutation, GST-LRRK2(amino acids 970-2527)) (Homo sapiens, UniProt Q5S007, G2019S)
T1 construct: GST-LRRK2(amino acids 970-2527); GST (N); purchased Life Technologies Corporation
Assay: LRRK2 Km ATP LanthaScreen Assay
Assay type: biochemical
Conditions: Km ATP LanthaScreen Assay; LRRK2 G2019S; mean IC50 values; Examples 185-215; read-out: LRRK2 IC5)
Experimental: Unless otherwise noted, all LRRK2 IC50 data presented in tables refers to the LRRK2 Km ATP LanthaScreen™ Assay that is described in the Biological Assay section.
The data presented for the 5 mM and Km ATP LanthaScreen™ Assay represents mean IC50 values based on several test results and may have reasonable. deviations depending on the specific conditions and reagents used. Reagents for the LRRK2 5 mM and Km ATP LanthaScreen™ Assay were purchased from Life Technologies Corporation.
Results are analysed using Assay Data Analyzer.

T1 sequence (Q5S007 970-2527 G2019S): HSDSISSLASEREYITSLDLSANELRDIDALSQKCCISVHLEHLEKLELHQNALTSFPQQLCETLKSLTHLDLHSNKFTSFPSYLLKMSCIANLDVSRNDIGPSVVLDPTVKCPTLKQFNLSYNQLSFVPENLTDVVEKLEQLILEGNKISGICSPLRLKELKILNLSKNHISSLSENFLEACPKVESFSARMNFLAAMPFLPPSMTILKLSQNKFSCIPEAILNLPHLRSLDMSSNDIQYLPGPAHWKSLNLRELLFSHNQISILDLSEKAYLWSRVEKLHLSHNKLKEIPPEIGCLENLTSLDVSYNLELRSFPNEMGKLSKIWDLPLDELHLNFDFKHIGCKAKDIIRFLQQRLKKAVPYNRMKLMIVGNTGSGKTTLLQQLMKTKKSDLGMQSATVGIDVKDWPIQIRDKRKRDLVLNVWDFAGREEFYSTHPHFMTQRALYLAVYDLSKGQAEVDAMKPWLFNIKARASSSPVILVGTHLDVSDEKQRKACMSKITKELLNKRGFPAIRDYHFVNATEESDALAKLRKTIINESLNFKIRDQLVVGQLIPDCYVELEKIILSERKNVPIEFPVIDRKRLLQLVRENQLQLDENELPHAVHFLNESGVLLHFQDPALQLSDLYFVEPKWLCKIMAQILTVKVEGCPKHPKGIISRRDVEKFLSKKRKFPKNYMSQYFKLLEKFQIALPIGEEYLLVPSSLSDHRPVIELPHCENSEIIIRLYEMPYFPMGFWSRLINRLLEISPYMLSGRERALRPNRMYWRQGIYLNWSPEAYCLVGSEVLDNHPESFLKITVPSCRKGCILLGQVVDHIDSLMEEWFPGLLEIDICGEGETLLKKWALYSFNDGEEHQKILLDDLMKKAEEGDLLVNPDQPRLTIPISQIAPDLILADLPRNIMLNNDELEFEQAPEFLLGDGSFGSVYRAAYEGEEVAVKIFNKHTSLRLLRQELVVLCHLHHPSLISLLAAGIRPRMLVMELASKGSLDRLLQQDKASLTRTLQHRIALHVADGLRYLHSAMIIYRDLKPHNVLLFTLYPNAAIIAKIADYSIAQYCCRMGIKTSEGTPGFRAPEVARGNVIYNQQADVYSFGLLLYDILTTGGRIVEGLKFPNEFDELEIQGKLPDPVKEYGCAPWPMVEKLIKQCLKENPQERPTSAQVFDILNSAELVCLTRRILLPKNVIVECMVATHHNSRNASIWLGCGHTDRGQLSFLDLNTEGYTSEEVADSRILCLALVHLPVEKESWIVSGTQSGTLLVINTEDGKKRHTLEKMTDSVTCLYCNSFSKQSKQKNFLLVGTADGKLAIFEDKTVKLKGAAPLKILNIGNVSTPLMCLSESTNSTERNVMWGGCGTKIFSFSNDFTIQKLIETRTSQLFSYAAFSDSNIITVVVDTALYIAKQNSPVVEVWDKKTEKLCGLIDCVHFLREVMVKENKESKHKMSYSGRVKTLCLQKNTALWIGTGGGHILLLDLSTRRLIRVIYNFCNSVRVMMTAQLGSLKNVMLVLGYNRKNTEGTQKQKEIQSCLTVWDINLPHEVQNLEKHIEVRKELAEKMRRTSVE

| Structure (SMILES) | IC50 [nM] |
| --- | --- |
| CC(C)Oc1ccc2[nH]nc(-c3ccnc(N4CCN(CC5CC5)CC4)c3)c2c1 [Example 211] | 6.2 |
| CC(C)Oc1ccc2[nH]nc(-c3ccnc(N4CCCC(c5ccncn5)C4)c3)c2c1 (centres unmarked) [Example 205] | 6.4 |
| CC(C)Oc1ccc2[nH]nc(-c3ccnc(N4CCN(c5ccccc5)C(=O)C4)c3)c2c1 [Example 199] | 8.9 |

Same assay, conditions: Km ATP LanthaScreen Assay; LRRK2 G2019S; mean IC50 values; read-out: LRRK2 IC50

| Structure (SMILES) | IC50 [nM] |
| --- | --- |
| CCOc1ccc2[nH]nc(-c3ccnc(N4CCN(C)C(=O)C4)c3)c2c1 [Example 217] | 4.9 |
| CC(C)Oc1ccc2[nH]nc(-c3ccnc(NC4Cc5ccccc5C4)c3)c2c1 [Example 130] | 13.3 |
| c1ccc2c(c1)CN(c1cc(-c3n[nH]c4ccccc34)ccn1)C2 [Example 7] | 87 |
| F[C@H]1COC[C@@H]1Nc1cc(-c2n[nH]c3ccccc23)ccn1 [Example 38] | 79 |
| [2H]C1([2H])OC([2H])([2H])C([2H])([2H])N(c2cc(-c3n[nH]c4ccccc34)ccn2)C1([2H])[2H] [Example 401] | 27 |
| c1cc(-c2n[nH]c3ccc(CN4CCCCC4)cc23)cc(N2CCOCC2)n1 [Example 88] | 164 |
| N#CCCNCc1ccc2[nH]nc(-c3ccnc(N4CCOCC4)c3)c2c1 [Example 93] | 30 |
| c1ccc(N2CCN(c3cc(-c4n[nH]c5ccccc45)ccn3)CC2)cc1 [Example 11] | 49 |
| FC(F)(F)Oc1ccc2[nH]nc(-c3ccnc(N4CCN(C5CC5)CC4)c3)c2c1 [Example 244] | 188 |
| CC(C)Oc1ccc2[nH]nc(-c3ccnc(N4CCCC(O)C4)c3)c2c1 (centres unmarked) [Example 170] | 6.4 |
| c1cc(-c2n[nH]c3ccc(CNC4CCCNC4)cc23)cc(N2CCOCC2)n1 (centres unmarked) [Example 96] | 110 |
| CC(C)Oc1ccc2[nH]nc(-c3ccnc(NC4CC4)c3)c2c1 [Example 137] | 24.3 |
| CCOc1ccc2[nH]nc(-c3ccnc(N4CCC(F)(F)CC4)c3)c2c1 [Example 216] | 5.4 |
| CC(C)Oc1ccc2[nH]nc(-c3ccnc(NCCc4ccccn4)c3)c2c1 [Example 133] | 0.8 |
| CS(=O)(=O)C1CN(c2cc(-c3n[nH]c4ccc(O)cc34)ccn2)C1 [Example 255] | 30.8 |
| c1cc(-c2n[nH]c3ccc(OCC4CCCO4)cc23)cc(N2CCOCC2)n1 (centres unmarked) [Example 83] | 5.4 |
| FC(F)(F)Oc1ccc2[nH]nc(-c3ccnc(N4CCc5nc(C6CC6)oc5C4)c3)c2c1 [Example 252] | 700 |
| NC(=O)C1CCCN(c2cc(-c3n[nH]c4ccccc34)ccn2)C1 (centres unmarked) [Example 71] | 16 |
| CC(C)Oc1ccc2[nH]nc(-c3ccnc(NC(=O)CC4COCCO4)c3)c2c1 (centres unmarked) [Example 168] | 33.4 |
| CN1CCC(CNc2cc(-c3n[nH]c4ccccc34)ccn2)C1 (centres unmarked) [Example 54] | 47 |

| Structure (SMILES) | IC50 [nM] |
| --- | --- |
| CO[C@@H]1CCN(c2cc(-c3n[nH]c4ccc(OC(F)(F)F)cc34)ccn2)C1 [Example 250] | 854 |
| CC(C)Oc1ccc2[nH]nc(-c3ccnc(NC(=O)C4CC(=O)C4)c3)c2c1 [Example 153] | 29.7 |
| CC(C)Oc1ccc2[nH]nc(-c3ccnc(NC(=O)c4ccnc(-n5cnnn5)c4)c3)c2c1 [Example 148] | 23.9 |
| CC(C)Oc1ccc2[nH]nc(-c3ccnc(NCc4ccccn4)c3)c2c1 [Example 132] | 2.2 |
| CC(C)CCC(=O)Nc1cc(-c2n[nH]c3ccc(OC(C)C)cc23)ccn1 [Example 149] | 79.6 |
| CCOc1ccc2[nH]nc(-c3ccnc(N4CCC5OCCC54)c3)c2c1 (centres unmarked) [Example 220] | 22.6 |
| c1ccc2c(-c3ccnc(N4CCC5OCCC54)c3)n[nH]c2c1 (centres unmarked) [Example 63] | 40 |
| Cc1nc(C)c(CC(=O)Nc2cc(-c3n[nH]c4ccc(OC(C)C)cc34)ccn2)s1 [Example 163] | 34.9 |
| CO[C@H]1CN(c2cc(-c3n[nH]c4ccc(OC(C)C)cc34)ccn2)C[C@@H]1O [Example 172] | 27.1 |
| C1=CC(c2noc(C3CCN(c4cc(-c5n[nH]c6ccccc56)ccn4)CC3)n2)=CCC1 [Example 20] | 27 |
| c1ccc2c(-c3ccnc(N4CCC(c5ccncc5)CC4)c3)n[nH]c2c1 [Example 16] | 186 |
| CS(=O)(=O)C1CN(c2cc(-c3n[nH]c4ccc(OC(F)(F)F)cc34)ccn2)C1 [Example 236] | 106 |
| CC(C)Oc1ccc2[nH]nc(-c3ccnc(N4CCC(c5ccncc5)C4)c3)c2c1 (centres unmarked) [Example 175] | 2.2 |
| c1ccc(COc2ccnc(-c3ccc4[nH]nc(-c5ccnc(N6CCOCC6)c5)c4c3)n2)cc1 [Example 101] | 182 |
| c1cncc(N2CCN(c3cc(-c4n[nH]c5ccccc45)ccn3)CC2)c1 [Example 24] | 18 |
| CCOc1ccc2[nH]nc(-c3ccnc(N4CC(C#N)(c5ccccc5)C4)c3)c2c1 [Example 219] | 70 |
| O=C1CCC(CNc2cc(-c3n[nH]c4ccccc34)ccn2)N1 (centres unmarked) [Example 44] | 26 |
| CCOc1ccc2[nH]nc(-c3ccnc(N4C[C@@H]5C[C@H]4CO5)c3)c2c1 [Example 221] | 20.9 |
| c1cc(-c2n[nH]c3ccc(OCCN4CCOCC4)cc23)cc(N2CCOCC2)n1 [Example 82] | 4.7 |
| CCOc1ccc2[nH]nc(-c3ccnc(N4CCC(C#N)(c5ccccc5)C4)c3)c2c1 (centres unmarked) [Example 225] | 16.3 |

Same assay, conditions: Km ATP LanthaScreen; mean IC50 of several tests; read-out: LRRK2 IC50

| Structure (SMILES) | IC50 [nM] |
| --- | --- |
| Oc1cc(-c2ccc3[nH]nc(-c4ccnc(N5CCNCC5)c4)c3c2)ccn1 [Example 120] | 3.4 |
| CC(O)Cc1cc2c(-c3ccnc(N4CCOCC4)c3)n[nH]c2cc1F (centres unmarked) [Example 350] | 76 |
| Cc1noc(C2CN(c3cc(-c4n[nH]c5ccc(-c6cnn(C)c6)cc45)ccn3)C2)n1 [Example 275] | 5.6 |
| COc1ccccc1Nc1cc(-c2n[nH]c3ccc(Nc4cccc(S(C)(=O)=O)c4)cc23)ccn1 [Example 113] | 422 |
| Brc1ccc2[nH]nc(-c3ccnc(N4CCOCC4)c3)c2c1 [Example 77] | 11 |
| CS(=O)(=O)Cc1cc2c(-c3ccnc(N4CCOCC4)c3)n[nH]c2cc1F [Example 372] | 1210 |
| COc1nccnc1-c1ccc2[nH]nc(-c3ccnc(N4CCOCC4)c3)c2c1 [Example 388] | 38 |
| CCCOc1ccc2[nH]nc(-c3ccnc(N4CCCCC4)c3)c2c1 [Example 300] | 31 |
| CO[C@H]1CN(c2cc(-c3n[nH]c4ccc(-c5cnn(C)c5)cc34)ccn2)C[C@@H]1O [Example 269] | 4.2 |
| CCOc1ccc2[nH]nc(-c3ccnc(N4CCCC4)c3)c2c1 [Example 297] | 7.3 |
| Cn1cc(-c2cc3c(-c4ccnc(N5CCOCC5)c4)n[nH]c3cc2F)cn1 [Ex 352] | 12 |
| COc1ncnc(C)c1-c1ccc2[nH]nc(-c3ccnc(N4CCOCC4)c3)c2c1 [Ex 331] | 59 |
| Oc1cc(-c2ccc3[nH]nc(-c4ccnc(N5CCOCC5)c4)c3c2)ccn1 [Example 100] | 3.4 |
| COc1ccnc(F)c1-c1ccc2[nH]nc(-c3ccnc(N4CCN(C(C)=O)CC4)c3)c2c1 [Example 367] | < 0.6 |
| CC(C)Oc1ccc2[nH]nc(-c3ccnc(N4CCC(CCN)CC4)c3)c2c1 [Example 382] | 6.8 |
| Oc1ccc2[nH]nc(-c3ccnc(N4CCOCC4)c3)c2c1 [Example 78] | 5.3 |
| Clc1cnc(-c2ccc3[nH]nc(-c4ccnc(N5CCOCC5)c4)c3c2)nc1 [Example 334] | 52 |
| COc1ccnc(F)c1-c1ccc2[nH]nc(-c3ccnc(N4CCOCC4)c3)c2c1 [Example 117] | 3.4 |
| c1cnc(-c2ccc3[nH]nc(-c4ccnc(N5CCOCC5)c4)c3c2)cn1 [Example 324] | 1.1 |

| Structure (SMILES) | IC50 [nM] |
| --- | --- |
| Oc1ccncc1-c1ccc2[nH]nc(-c3ccnc(N4CCOCC4)c3)c2c1 [Example 118] | 70 |
| CCCOc1ccc2[nH]nc(-c3ccnc(N4CCN(C)C(=O)C4)c3)c2c1 [Example 293] | 15 |
| Cc1ccc2c(-c3ccnc(N4CCOCC4)c3)n[nH]c2c1 [Example 104] | 35 |
| Fc1cc2[nH]nc(-c3ccnc(N4CCOCC4)c3)c2cc1-c1ccn[nH]1 [Example 351] | 1.1 |
| CC(C)Oc1ccc2[nH]nc(-c3ccnc(N4CC5(COC5)C4)c3)c2c1 [Example 283] | 5.9 |
| Brc1ccc2c(-c3ccnc(N4CCOCC4)c3)n[nH]c2c1 [Example 103] | 19 |
| CCc1cnc(-c2ccc3[nH]nc(-c4ccnc(N5CCOCC5)c4)c3c2)nc1 [Example 330] | 5.6 |
| CCOc1ccc2[nH]nc(-c3ccnc(N4CC(O)(C(F)(F)F)C4)c3)c2c1 [Example 361] | < 0.6 |
| CC(C)Oc1ccc2[nH]nc(-c3ccnc(N4CCN(C(=O)C5CC5)C(C)C4)c3)c2c1 (centres unmarked) [Example 386] | 2.8 |
| COc1ccncc1-c1ccc2[nH]nc(-c3ccnc(N4CCOCC4=O)c3)c2c1 [Example 365] | 17 |
| CC(C)Oc1ccc2[nH]nc(-c3ccnc(N4CC5CCC(C4)O5)c3)c2c1 [Example 280] | 5 |
| COCCOc1ccc2[nH]nc(-c3ccnc(N4CCOCC4)c3)c2c1 [Example 377] | 70 |
| CCCOc1ccc2[nH]nc(-c3ccnc(N4CCN(C)CC4)c3)c2c1 [Example 294] | 17 |
| OCCc1cc2c(-c3ccnc(N4CCOCC4)c3)n[nH]c2cc1F [Example 349] | 27 |
| c1cncc(-c2ccc3[nH]nc(-c4ccnc(N5CCOCC5)c4)c3c2)c1 [Example 98] | 3.4 |
| CCOc1ccc2[nH]nc(-c3ccnc(N4CCC(F)(F)CC4)c3)c2c1 [Example 288] | 22 |
| CC(C)Oc1ccc2[nH]nc(-c3ccnc(N4CCN(C)C(=O)C4)c3)c2c1 [Example 312] | 2.6 |
| Oc1ccc2[nH]nc(-c3ccnc(N4C5CCC4COC5)c3)c2c1 [Example 398] | 69 |
